Data from PMC7696255, “In-Silico Identified New Natural Sortase A Inhibitors Disrupt S. aureus Biofilm Formation” (International Journal of Molecular Sciences, 2020).
Converted amounts (≈) assume the structure as drawn. Read-outs that look alike come from different tables or passages of the source.

Columns and labels:
S. aureus sortase A [1] = molecular target: T1, S. aureus sortase A (Staphylococcus aureus, UniProt Q2FV99); assay: SrtA enzyme inhibition FRET assay, DABCYL-LPETG-EDANS substrate; assay type: biochemical
T1 construct: purchased AnaSpec AS-72229
T1 sequence (Q2FV99 whole entry): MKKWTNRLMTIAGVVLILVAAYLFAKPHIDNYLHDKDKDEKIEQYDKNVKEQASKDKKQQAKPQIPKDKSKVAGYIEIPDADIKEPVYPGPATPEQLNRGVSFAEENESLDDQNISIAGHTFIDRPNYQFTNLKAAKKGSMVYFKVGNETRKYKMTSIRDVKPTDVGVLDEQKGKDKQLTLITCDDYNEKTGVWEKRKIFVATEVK
Description: (§1) The enzymatic reactions were carried out in black, low-binding polystyrene 384 well plates (Greiner Bio-One). […] SrtA was pre-incubated in the reaction buffer with compounds for 1 h at room temperature prior to the addition of the FRET substrate. Assays were performed in 50 µL reactions with 50 ng of S. aureus sortase A and 25 µM of DABCYL-LPETG-EDANS substrate or 1 µM of 5-FAM/QXL^TM 520 substrate. The inhibitory activity of the compounds was determined by monitoring the rise in fluorescence intensity over 24 h at Ex/Em = 336 nm/490 nm for the DABCYL/EDANS substrate and Ex/Em = 490 nm/520 nm for the 5-FAM/QXL 520 substrate on a Tecan Infinite M1000 Pro reader.
(§2) Raw fluorescence data were corrected for autofluorescence before computing percentage inhibition values. These percentage inhibition values were plotted against compound concentration using GraphPad Prism version 8.0 by nonlinear regression analysis using least squares fit method for IC50 determination. Testing was performed twice to ensure reproducibility of results.

[2] = system: S. aureus Newman biofilm formation; assay: Biofilm inhibitory assay (crystal violet), biofilm formation; assay type: cell-based, Staphylococcus aureus; settings: CV assay
Description: (§3) The effectiveness of SrtA inhibitors in reducing biofilm formation and growth was assessed using the crystal violet (CV) biofilm assay with the following modifications. TSB with 2% glucose (TSB without glucose for E. coli) was inoculated with 10^5 CFU/mL of S. aureus and E. coli overnight cultures. A total of 90µl of this cell suspension was then dispensed into 96-well microtiter plates containing 10 µL of different concentrations of the SrtA inhibitors. After 24 h growth at 37 °C the plates were washed with PBS to remove unbound cells and heat fixed at 60 °C for 30 min. Next, the wells were stained with 0.1% crystal violet solution for 15 min at room temperature. At the completion of the incubation plates were washed 3 times with PBS and dried. Then the crystal violet dye from the biofilm was solubilized with 200 µL of DMSO. A total of 100 µL of this solution was then moved to a new microtiter plate for absorbance measurement at 595 nm. For pre-formed biofilm assay, the plates were prepared and incubated as mentioned earlier, without SrtA inhibitors. After 24 h incubation, the culture supernatant was removed gently and biofilm carefully washed with sterile PBS. Next, 10 µL of different concentrations of SrtA inhibitors with 90 µL of TSB with 2% glucose were added carefully into the wells and incubated at 37 °C for 24 h. The amount of crystal violet staining of biofilm was measured as described above. The results were reported as percent inhibition normalized to the wild type control. Two independent experiments were performed in triplicate to ensure reproducibility.

[3] = system: S. aureus ATCC 33591 (MRSA) biofilm formation; assay: as above; assay type: cell-based, Staphylococcus aureus
Description: as §3

[4] = system: adherence of S. aureus Newman to fibrinogen; assay: Fibrinogen binding assay; assay type: cell-based, Staphylococcus aureus
Description: Fibrinogen binding assay was completed as described but with slight revision. A flat-bottom 96-well plate was covered with fibrinogen protein by adding 50 µL of 20 µg/mL of fibrinogen protein from bovine plasma diluted in saline and incubated at 4 °C for 24 h. The coated plates were gently rinsed twice with PBS and blocked for 60 min with 4% bovine serum albumin (BSA). The plates were then washed 3 times with PBS. For this assay, S. aureus Newman strain was cultivated in TSB at 37 °C to exponential phase (OD600 = 0.5) and then the bacterial culture was incubated with various concentrations of test compound or control for 2.5 h. Then the cells were pelleted by centrifugation at 10,000× g for 10 min, the supernatants were removed and the cell pellets stored at −20 °C. The following day, cell pellets were suspended in PBS and dispersed in 100 μL aliquots to distinct wells of fibrinogen-coated 96-well plates. After 2 h of growth at 37 °C, the bacterial supernatant was discarded and the wells were rinsed gently with 150 µl PBS. Then the bacterial cells were fixed with 2% (v/v) glutaraldehyde and incubated for 30 min at 25 °C. After a wash with PBS, bound cells were stained with 0.1% crystal violet dye for 15 min. Plates were rinsed twice again with PBS, enclosed with aluminum foil, then stored at room temperature to dry overnight. On the next day absorbance was measured at 570 nm. The results were described as the percent of adhesion inhibition normalized to the wild type control. Two independent experiments were performed in triplicate to ensure reproducibility.

S. aureus sortase A [5] = molecular target: T1, S. aureus sortase A; assay: SrtA enzyme inhibition FRET assay, 5-FAM/QXL 520 substrate; assay type: biochemical; settings: Sortase A IC50, 5-FAM/QXL substrate; 10 min
Description: as §1, §2

[6] = system: S. aureus ATCC 33591 (MRSA) pre-formed biofilms; assay: Biofilm inhibitory assay (crystal violet), pre-formed biofilms; assay type: cell-based, Staphylococcus aureus
Description: as §3

[7] = system: S. aureus Newman pre-formed biofilms; assay: as above; assay type: cell-based, Staphylococcus aureus; settings: CV assay
Description: as §3

HepG2 cells = assay: Mammalian cell cytotoxicity assay (PrestoBlue); assay type: cell-based, human; settings: read-out: Mammalian cell lines IC50
Description: (§4) A549 and HepG2 cells were seeded at 1500 and 2500 cells per well, respectively, in 384-well microplates and incubated at 37 °C in the presence of 5% CO2. The next day, cells were treated with compounds then incubated for an additional 72 h. To assess the cytotoxic effect of the compounds PrestoBlue cell viability reagent (Life Technologies, Carlsbad, CA, USA) was used. After the 72 h incubation with compounds, the 384-well assay plates were incubated with this viability indicator dye for 2 h (A549) and 4 h (HepG2) before fluorescence reading at Ex/Em = 560 nm/590 nm on the Tecan Infinite M1000 Pro reader. Puromycin (data not shown) was used as the positive control against both cell lines. All tests were executed in triplicate on two separate experiments.

A549 cells = assay: Mammalian cell cytotoxicity assay (PrestoBlue); assay type: cell-based, human; settings: read-out: Mammalian cell lines IC50
Description: as §4

[8] = system: E. coli ATCC 25922 biofilm formation; assay: Biofilm inhibitory assay (crystal violet), biofilm formation; assay type: cell-based; settings: in words; CV assay
Description: as §3, with “Next, 10 µL of different concentrations of SrtA inhibitors with 90 µL of TSB with 2% glucose were added carefully into the wells and incubated at 37 °C for 24 h.” left out, “The results were reported as percent inhibition normalized to the wild type control. Two independent experiments were performed in triplicate to ensure reproducibility.” left out

S. aureus Newman = assay: S. aureus whole cell assay (MIC, microbroth dilution); assay type: cell-based, Staphylococcus aureus; settings: 24 h
Description: (§5) Minimum inhibitory concentration (MIC) tests were performed according to procedures of the Clinical Laboratory Standards Institute (CLSI) with minor changes using the microbroth dilution technique in a 384-well setup. Inoculum of each S. aureus strain was prepared by suspending segregated colonies in sterile saline to a 0.5 McFarland standard. An inoculum of 2–8 × 10^5 CFU/mL was incubated with the compounds for 24 h at 37 °C. Gentamicin (data not shown) was incubated in the same manner as the test compounds and served as a positive control. The effect of the compounds on bacterial growth was calculated by quantifying the optical density at 600 nm on a microplate reader (Tecan, Infinite M1000, Salzburg, Austria). Dilutions of the inoculum were cultivated on agar to verify the validity of the inoculum seeding density and absence of contamination. All tests were executed in triplicate during two separate experiments.

[9] = system: S. aureus ATCC 33591 (MRSA); assay: as above; assay type: cell-based, Staphylococcus aureus; settings: 24 h
Description: as §5

S. aureus ATCC 25923 = assay: as above; assay type: cell-based, Staphylococcus aureus
Description: as §5

CC(C)CCCc1c(O)ccc(C(=O)c2cc(Cl)c(Cl)[nH]2)c1O [Compound N2576, (4,5-dichloro-1H-pyrrol-2-yl)-[2,4-dihydroxy-3-(4-methyl-pentyl)-phenyl]-methanone]
IC50 (S. aureus sortase A [1]; Sortase A IC50, DABCYL-LPETG-EDANS substrate, 4 h): 47 ± 4.2 µM
IC50 (S. aureus sortase A [1]; SrtA enzymatic activity IC50, text summary, Figure 2A,B, both substrates): < 50 µM
concentration giving >90% inhibition of biofilm formation [2]: 4.4 µM
IC50 ([2]; Staphylococcus aureus, NEWMAN, biofilm formation, read-out: Biofilm Inhibition IC50): 2.9 µM
concentration giving >90% inhibition on MRSA biofilm formation ([3]; CV assay): 70 µM
IC50 ([3]; Staphylococcus aureus, S. aureus ATCC 33591 (MRSA), biofilm formation, read-out: Biofilm Inhibition IC50): 24.8 µM
IC50 ([4]; Staphylococcus aureus, NEWMAN, read-out: Fibrinogen adherence Inhibition IC50): 5.7 ± 0.8 µM
concentration giving ≥90% prevention of S. aureus Newman adherence to fibrinogen ([4]; compared to untreated wildtype strain): 17 µM
IC50 (S. aureus sortase A [5]): 32 ± 6.3 µM
concentration giving >90% inhibition on MRSA preformed biofilms ([6]; CV assay): 280 µM
IC50 ([6]; Staphylococcus aureus, S. aureus ATCC 33591 (MRSA), pre-formed biofilms, read-out: Biofilm Inhibition IC50): > 200 µM
concentration giving >90% inhibition on preformed biofilms [7]: 17 µM
IC50 ([7]; Staphylococcus aureus, pre-formed biofilms, read-out: Biofilm Inhibition IC50): 10 µM
IC50 (HepG2 cells; 72 h): 60 to 90 µM
IC50 (HepG2 cells; Homo sapiens, HepG2, 72 h): 65 ± 7.4 µM
IC50 (A549 cells; 72 h): 60 to 90 µM
IC50 (A549 cells; Homo sapiens, A549, 72 h): 88.1 ± 13 µM
effect on E. coli ATCC 25922 biofilm formation [8]: did not show any effect
S. aureus MIC (S. aureus Newman; Newman): 5 to 8 µM
MIC (S. aureus Newman; Staphylococcus aureus, NEWMAN): 5.8 ± 1.3 µM (≈ 2.07 µg/mL)
S. aureus MIC [9]: 25 to 80 µM
MIC ([9]; Staphylococcus aureus): 25.2 ± 5.5 µM (≈ 8.98 µg/mL)
S. aureus MIC (S. aureus ATCC 25923; 24 h): 5 to 8 µM
MIC (S. aureus ATCC 25923; Staphylococcus aureus, ATCC25923, 24 h): 6.3 ± 0.1 µM (≈ 2.24 µg/mL)
